Measured values reported in patent US20170065561A1, “METHODS OF CANCER THERAPY” (CAMBRIDGE ENTERPRISE LIMITED, priority 2014, published 2017).
“Also recorded” adds a separate entry of the source.

Experiments:
plasma ceramide = test: Main treatment experiments in GD mice: plasma ceramide; format: in vivo, mouse; details: GD mice receiving the high dose
Description: (§1) The inducible mouse model of type 1 Gaucher disease [Gba^tm1Karl/tm1KarlTg (Mx1-cre) 1Cgn/0 (MGI:3687965; MGI:2176073)[41]. The mating, induction with polyinosinic-polycytidylic (poly I:C) acid sodium salt solution and genotyping were conducted as previously described. Animals of genotype Gba^tm1Karl/tm1KarlTg (Mx1-cre) 1Cgn/0 are referred GD mice; induced mice with the Gba^tm1Karl/tm1Karl and Gba^tm1Karl/+ genotypes and background strain wild type animals served as age-matched controls. All mice here reported had been bred on a C57BL/6 and 129/sv background.
GENZ 112638 was introduced at a mean age of 1.5 months, with access to the diet and water ad libitum. […] The health of the animals was checked daily; body weights and food consumption were monitored at intervals of three days. The humane endpoints were approved and established: (i) reduction of 20% or more of the greatest recorded body weight or (ii) the development of adverse manifestations (e.g. development of frank tumours or cachexia).
(§2) Concentrations of β-D-glucosylceramide in plasma in the short-term tolerability study were conducted as previously published. β-D-glucosylceramide, β-D-glucosylsphingosine and ceramide concentrations in tissues and plasma samples of the principal intervention and delayed-treatment experiments were quantified as previously reported.

plasma glucosylceramide = test: Delayed treatment experiments: plasma glucosylceramide; format: in vivo, mouse; details: delayed treatment: mean age 7.3 months, 300 mg/kg daily for 5.4 months
Description: (§3) To investigate the potential effects of delayed treatment, eight Gaucher mice were exposed to Genz-112638 after 6 months of age. The animals received the drug for 6 months at a dose 300 mg/kg daily and were killed at 12 months of age (FIG. 1). A group of eight matched Gaucher disease control mice were given the base standard diet; these animals were monitored and otherwise treated identically with those animals with delayed exposure to the study drug.
as §2

[1] = system: plasma glucosylsphingosine; test: Delayed treatment experiments: plasma glucosylsphingosine; format: in vivo, mouse; details: delayed treatment: mean age 7.3 months, 300 mg/kg daily for 5.4 months
Description: as §3, §2

[2] = molecular target: T1, 1-O-acylceramide synthase (Homo sapiens, UniProt Q8NCC3); details: cited from earlier work
T1 sequence (Q8NCC3 34-412): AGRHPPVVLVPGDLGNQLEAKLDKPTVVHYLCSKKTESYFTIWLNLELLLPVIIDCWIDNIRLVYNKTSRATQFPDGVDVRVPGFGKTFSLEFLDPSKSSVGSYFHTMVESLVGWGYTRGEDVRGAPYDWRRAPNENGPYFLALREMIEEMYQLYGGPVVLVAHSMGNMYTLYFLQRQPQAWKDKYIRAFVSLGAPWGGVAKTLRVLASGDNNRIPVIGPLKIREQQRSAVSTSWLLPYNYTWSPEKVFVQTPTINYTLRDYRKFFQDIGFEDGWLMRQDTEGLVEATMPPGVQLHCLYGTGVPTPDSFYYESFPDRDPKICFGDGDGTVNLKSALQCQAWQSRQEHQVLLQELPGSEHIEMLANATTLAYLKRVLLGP

intracellular ceramide = details: cited from earlier work
Gaucher mice = test: Main treatment experiments: lymphoma incidence in Gaucher mice; format: in vivo, mouse
Description: The non-parametric Mann-Whitney test was used for between-groups comparisons. The Fisher's exact test was used for comparison of the occurrence of lymphoma or plasma paraprotein in treated and untreated groups. Statistical analyses were conducted using GraphPad Prism v5.0 software.

plasma IgG = test: Total IgG plasma concentrations (ELISA); format: in vivo, mouse; details: treated GD mice
Excerpt: Total IgG ELISA kit (Affimetrix) was used to determine plasma IgG concentrations in selected groups of animals.

[3] = molecular target: T2, UDP-glucosylceramide synthase (Homo sapiens, UniProt Q16739); details: read-out: IC50 (potency, UDP-glucosylceramide synthase); cited from earlier work
T2 sequence (Q16739 1-394): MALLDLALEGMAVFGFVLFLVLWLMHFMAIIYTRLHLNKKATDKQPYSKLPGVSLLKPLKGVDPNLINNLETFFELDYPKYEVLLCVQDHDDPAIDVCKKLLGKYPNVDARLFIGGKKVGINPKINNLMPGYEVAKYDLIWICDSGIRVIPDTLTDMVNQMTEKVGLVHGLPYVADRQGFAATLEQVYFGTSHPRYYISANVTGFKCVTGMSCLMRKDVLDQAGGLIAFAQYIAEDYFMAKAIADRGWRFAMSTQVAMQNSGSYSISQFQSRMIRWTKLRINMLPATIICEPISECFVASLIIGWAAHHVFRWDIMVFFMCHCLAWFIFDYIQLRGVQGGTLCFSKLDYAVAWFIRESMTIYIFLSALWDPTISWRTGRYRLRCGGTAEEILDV

[4] = system: AKT protein kinase-mammalian target of rapamycin signaling; details: polycystic kidney disease; cited from earlier work
[5] = system: plasma β-D-glucosylceramide; test: Main treatment experiments in GD mice: plasma glucosylceramide; format: in vivo, mouse
Description: as §1
(§4) GENZ 112638 was introduced at a mean age of 1.5 months, with access to the diet and water ad libitum. All experimental animals were housed in individually ventilated cages in groups of up to three mice within the same environmental conditions. The health of the animals was checked daily; body weights and food consumption were monitored at intervals of three days. The humane endpoints were approved and established: (i) reduction of 20% or more of the greatest recorded body weight or (ii) the development of adverse manifestations (e.g. development of frank tumours or cachexia).
as §2

[6] = system: glycosidases and other enzymes involved in sphingolipid metabolism; details: in vitro; cited from earlier work
[7] = mouse, in vivo, 300 mg/kg
Excerpt: as §4

GD mice = test: Main treatment experiments: histology and immunohistochemistry of tissues; details: for plasma-cell (CD138+) infiltration in the red pulp of the spleen: treated versus age-matched untreated GD mice
Description: A total of 22 induced Gaucher disease mice received GENZ 112638 at 300 mg/kg daily: four mice received the treatment over 3 months, four mice received the drug for 6 months, six mice received the diet for 7-9 months. […] A group of 8 mice received the drug for 10 months and were killed at 14 months of age. To serve as a control group, 45 age- and sex-matched induced Gaucher mice were given a standard diet.
Visceral organs (spleen, liver, lungs and kidneys) as well as long bones, lymph nodes, and, where relevant, tumours, were collected by dissection and either frozen or fixed in 4% w/v paraformaldehyde or 10% buffered formalin and processed in paraffin-embedded blocks for further analysis. Sample of long bones were fixed in 4% w/v paraformaldehyde and decalcified in EDTA for two weeks. Spleen and liver weights were recorded fresh at post mortem. Samples of venous blood were collected from the tail vein at 3 monthly intervals during the experimental protocol. Complete blood counts (CBC) were determined using an automated haematology analyser (SYSMEX XT 2000i). EDTA plasma or serum samples collected at post mortem were stored at −80° C. until thawed for analysis.
Paraffin-embedded sections of 3.5 μm were stained routinely with haematoxylin and eosin. Immunohistochemical staining was carried out using rat anti-mouse CD45R/B220 (R&D systems), anti-mouse CD3 (Abcam), CD138 (BD, Pharmingen), rat anti-mouse Mac-3 M3/84 clone (BD, Pharmingen) and rabbit anti-mouse Ki-67 (Abcam) primary antibodies. Staining was realized by the avidin-biotin peroxidase technique (Vectastatin ABC elite kit), and developed using diaminobenzidine with cresyl violet or haematoxylin counterstaining.
Lymphoproliferation in serial sections of spleen, liver, lungs and kidneys was estimated by a scoring system modified as described by Elmore [42]. Sections were reviewed blindly for lymphoma and lymphoproliferative reactions by a board-certified veterinary pathologist.

With “bis{N-[(1R,2R)-2-(2,3-dihydro-1,4-benzodioxin-6-yl)-2-hydroxy-1-(pyrrolidin-1-ylmethyl)ethyl]octanamide} (2R,3R)-2,3-dihydroxybutanedioate [eliglustat tartrate]” the “mean plasma ceramide concentrations” value (plasma ceramide) was “slightly increased”, the “plasma concentration of glucosylceramide” value (plasma glucosylceramide) was “decreased” and the “plasma concentration of glucosylsphingosine” value [1] was “decreased”. The “inhibition of 1-O-acylceramide synthase” value [2] was “does not inhibit 1-O-acylceramide synthase”, the intracellular ceramide levels (intracellular ceramide) was “does not inhibit 1-O-acylceramide synthase or increase intracellular ceramide levels” and the “occurrence of B cell lymphoma, myeloma or other tumours” value (Gaucher mice; 22 Gaucher mice exposed for 2-10 months, 300 mg/kg, early administration, listed as GENZ 112638, 300 mg/kg) was “No B cell lymphomas or other tumours were found; also recorded: completely prevented”. For the same substance, the “Lymphoma (number of mice)” value (Gaucher mice; age group 0-6 months, total 4 mice) was 0, the “Lymphoma (number of mice)” value (Gaucher mice; age group 7-12 months, total 10 mice) was 0 and the “Lymphoma (number of mice)” value (Gaucher mice; age group 13-18 months, total 8 mice) was 0. For the same substance, the “Lymphoma (number of mice)” value (Gaucher mice; all age groups, total 22 mice) was 0, the “total plasma immunoglobulin G concentrations” value (plasma IgG) was “decreased significantly” and the IC50 [3] was 24 nM. For the same substance, the “AKT protein kinase-mTOR signaling and cell-cycle control” value [4] was “repress”, the “glucosylceramide concentration in plasma” value ([5]; GD mice with intermittent treatment for 10 months, listed as GENZ 112638) was “raised above the reference range” and the “glucosylceramide concentration in plasma” value ([5]; GD mice with intermittent treatment for 10 months, listed as Genz-112638) was “increased plasma concentration”. For the same substance, the “plasma β-D-glucosylceramide concentration” value ([5]; GD mice, 300 mg/kg daily, early continuous treatment) was “decreased”, the “glucosylceramide concentration in plasma” value ([5]; GD mice, after 10 months treatment, p<0.01) was “reduced” and the glucosylceramide/ceramide ratio ([5]; treated GD animals compared with untreated) was “markedly diminished”. For the same substance, the “inhibitory properties towards glycosidases and other enzymes involved in sphingolipid metabolism” value [6] was “minimal inhibitory properties”, the “animals withdrawn early from the study as a result of weight loss” value [7] was “Two” and the “Ki-67 staining (proliferation marker), spleen” value (GD mice; GD mice treated for 10 months, listed as Genz-112638) was “less evident; also recorded: decreased population of lymphoid cells”. The “lipid-engorged macrophages in tissue sections” value (GD mice; GD mice, liver and spleen) was “fewer lipid-engorged macrophages”, the “pathological macrophages staining for the Mac 3 antigen” value (GD mice; tissues of GD mice, listed as GENZ 112638) was “markedly decreased or absent; also recorded: prevented the florid appearance of pathological macrophages” and the “cellularity of the spleens” value (GD mice; treated Gaucher mice) was “slight decrease”. For the same substance, the “plasma-cell (CD138+) infiltration in the red pulp of the spleen” value (GD mice; listed as GENZ 112638) was “less evident”, the “plasma-cell (CD138+) infiltration in the red pulp of the spleen” value (GD mice; listed as Genz-112638) was “decreased number of CD138^+ lymphocytes” and the “inflammatory changes in the liver, lungs and kidneys” value (GD mice; treated versus untreated GD mice) was “reduced or absent”. The “splenic architecture (H&E; B220/CD3 staining)” value (GD mice; treated versus untreated GD mice, listed as GENZ 112638) was “preservation of the splenic architecture”, the “splenic architecture (H&E; B220/CD3 staining)” value (GD mice; treated versus untreated GD mice, listed as Genz-112638) was “preserved white pulp architecture” and the “spleen and liver weights” value (GD mice; treated versus untreated Gaucher mice) was “did not differ”.
